Consider 9 molecules from patent publication US20240148821A1, “PHARMACEUTICAL USE OF CYCLIC PEPTIDE COMPOUND” (CHUGAI SEIYAKU KABUSHIKI KAISHA, priority 2021, published 2024).

Numbered stars: 1 amine (or outer) side, 2 acyl side, 3 side chain; on linkers, the order of the positions; unused ones are H or OH. Bridge positions count the residues as written; N and C are the ends. Square brackets hold non-standard residues; d marks the D form. Peptide text beside a SMILES is read from it. * marks the point of attachment. hPhe(3-Cl-4-CF3) = N[C@@H](CCc1ccc(C(F)(F)F)c(Cl)c1)C(=O)O; NMePhe(4-CF3) = CN[C@@H](Cc1ccc(C(F)(F)F)cc1)C(=O)O; NEtPhe(4-Me) = CCN[C@@H](Cc1ccc(C)cc1)C(=O)O; NEtPhe(2-Cl) = CCN[C@@H](Cc1ccccc1Cl)C(=O)O; NMePhe(4-Me) = CN[C@@H](Cc1ccc(C)cc1)C(=O)O; NMedβ3hAla = C[C@H](CC(=O)[*:2])N(C)[*:1]; X69 = CN(C)C(=O)COCCN(CC(=O)[*:2])[*:1]; NMeGly(cPent) = CN[C@H](C(=O)O)C1CCCC1; Phe(3-I) = N[C@@H](Cc1cccc(I)c1)C(=O)O; NMeCha = CN[C@@H](CC1CCCCC1)C(=O)O; Ala(cPr) = N[C@@H](CC1CC1)C(=O)O; NMeCba = CN[C@@H](CC1CCC1)C(=O)O; NMeChg = CN[C@H](C(=O)O)C1CCCCC1; NMeI = CC[C@H](C)[C@H](NC)C(=O)O; NMeD = CN[C@@H](CC(=O)O)C(=O)O; NMeL = CN[C@@H](CC(C)C)C(=O)O; NMeNva = CCC[C@H](NC)C(=O)O; NMeV = CN[C@H](C(=O)O)C(C)C; d(β3hA) = C[C@@H](N)CC(=O)O; Morpholide = C1CN(*)CCO1; NMeA = CN[C@@H](C)C(=O)O; NMeAib = CNC(C)(C)C(=O)O; Piperidide = C1CCN(*)CC1; Pra = C#CC[C@H](N)C(=O)O; Ac5c = NC1(C(=O)O)CCCC1; Aze = O=C(O)[C@@H]1CCN1; NEtG = CCNCC(=O)O; Sar = CNCC(=O)O

The target of this assay is protein-protein interaction between Kras and SOS1 (biotin-tagged human Kras loaded with GDP, His-tagged human SOS1) (Homo sapiens (Human), UniProt P01116, G12D). Kind of assay: Protein-protein interaction inhibition between Kras and SOS1 (KrasG12D-SOS PPI) using AlphaScreen.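 Also: kras produced in E. coli, Ni-coupled donor beads and streptavidin acceptor beads, excitation 680 nm with emission detected at 520–620 nm via singlet oxygen transfer.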 Format: biochemical. The following applies: AlphaScreen; biotin-tagged human Kras loaded with GDP, His-tagged human SOS1; read-out: KRAS G12D-SOS PPI IC50.
As for `CC[C@H](C)[C@@H]1NC(=O)[C@H](C)N(C)C(=O)C[C@@H](C(=O)N2CCCCC2)N(C)C(=O)[C@H](C(C)C)N(C)C(=O)C2(CCCC2)NC(=O)[C@H](Cc2ccccc2Cl)N(CC)C(=O)[C@H](CCc2ccc(C(F)(F)F)c(Cl)c2)NC(=O)CN(C)C(=O)[C@H](Cc2ccc(C)cc2)N(C)C(=O)CN(C)C(=O)CN(C)C1=O` [Compound 2166] ([NMeA]I[Sar][Sar][NMePhe(4-Me)][Sar][hPhe(3-Cl-4-CF3)][NEtPhe(2-Cl)][Ac5c][NMeV][NMeD]-Piperidide; lactam N-11), the IC50 came out at 330 nM.

Regarding `CC[C@H](C)[C@@H]1NC(=O)[C@H](CC(C)C)N(C)C(=O)C[C@@H](C(=O)N2CCOCC2)N(C)C(=O)[C@H](C2CCCC2)N(C)C(=O)C2(CCCC2)NC(=O)[C@@H]2CCCN2C(=O)[C@H](CCc2ccc(C(F)(F)F)c(Cl)c2)NC(=O)CN(CC)C(=O)[C@H](C2CCCC2)N(C)C(=O)[C@@H]2CCN2C(=O)[C@H](C)N(C)C1=O` [Compound 1142] ([NMeL]I[NMeA][Aze][NMeGly(cPent)][NEtG][hPhe(3-Cl-4-CF3)]P[Ac5c][NMeGly(cPent)][NMeD]-Morpholide; lactam N-11), the concentration for half-maximal inhibition (IC50) is 6.5 nM.

`C#CC[C@@H]1NC(=O)[C@H](Cc2cccc(I)c2)NC(=O)CN(C)C(=O)[C@H](Cc2ccc(C(F)(F)F)cc2)N(C)C(=O)CN(C)C(=O)CN(C)C(=O)[C@H]([C@@H](C)CC)NC(=O)[C@H](CC(C)C)N(C)C(=O)C[C@@H](C)N(C)C(=O)[C@H](CC(C)C)NC(=O)C(C)(C)N(C)C1=O` [Compound 1406] (cyclo(I[Sar][Sar][NMePhe(4-CF3)][Sar][Phe(3-I)][Pra][NMeAib]L[NMedβ3hAla][NMeL])): the IC50 came out at 160 nM.

For `CCC[C@H]1C(=O)N2CC[C@H]2C(=O)N(C)[C@@H](CC2CCCCC2)C(=O)N(C)CC(=O)N[C@@H](CCc2ccc(C(F)(F)F)c(Cl)c2)C(=O)N2CCC[C@H]2C(=O)NC2(CCCC2)C(=O)N(C)[C@@H](C(C)C)C(=O)N(C)[C@H](C(=O)N2CCCCC2)CC(=O)N(C)[C@@H](CC(C)C)C(=O)N[C@@H]([C@@H](C)CC)C(=O)N1C` [Compound 1601] ([NMeL]I[NMeNva][Aze][NMeCha][Sar][hPhe(3-Cl-4-CF3)]P[Ac5c][NMeV][NMeD]-Piperidide; lactam N-11), the IC50 worked out at 22 nM. Consider `CC[C@H](C)[C@@H]1NC(=O)[C@H](CC(C)C)N(C)C(=O)C[C@@H](C(=O)N2CCCCC2)N(C)C(=O)[C@H](C(C)C)N(C)C(=O)C2(CCCC2)NC(=O)[C@@H]2CCCN2C(=O)[C@H](CCc2ccc(C(F)(F)F)c(Cl)c2)NC(=O)CN(C)C(=O)[C@H](CC2CCCCC2)N(C)C(=O)[C@@H]2CCN2C(=O)[C@H](CC2CCC2)N(C)C1=O` [Compound 1603] ([NMeL]I[NMeCba][Aze][NMeCha][Sar][hPhe(3-Cl-4-CF3)]P[Ac5c][NMeV][NMeD]-Piperidide; lactam N-11), for which the IC50 worked out at 94 nM. The same measure for `CC[C@H](C)[C@@H]1NC(=O)[C@H](CC(C)C)N(C)C(=O)C[C@@H](C(=O)N2CCCCC2)N(C)C(=O)[C@H](C2CCCCC2)N(C)C(=O)C2(CCCC2)NC(=O)CN(CCOCC(=O)N(C)C)C(=O)[C@H](CCc2ccc(C(F)(F)F)c(Cl)c2)NC(=O)CN(C)C(=O)[C@H](CC2CCCCC2)N(C)C(=O)CN(C)C(=O)CN(C)C1=O` [Compound 2038, 2-[2-[(11S,17S,26S,29S,33S,36S)-11-[2-[3-chloro-4-(Trifluoromethyl)phenyl]ethyl]-36-cyclohexyl-17-(cyclohexylmethyl)-29-isobutyl-15,18,21,24,30,34,37-heptamethyl-26-[(1S)-1-methylpropyl]-7,10,13,16,19,22,25,28,31,35,38-undecaoxo-33-(piperidine-1-carbonyl)-6,9,12,15,18,21,24,27,30,34,37-undecazaspiro[4.33]octatriacontan-9-yl]ethoxy]-N,N-dimethyl-acetamide] ([NMeL]I[Sar][Sar][NMeCha][Sar][hPhe(3-Cl-4-CF3)][X69][Ac5c][NMeChg][NMeD]-Piperidide; lactam N-11): 8.3 nM. The same measure for `CC[C@H](C)[C@@H]1NC(=O)[C@H](CC(C)C)N(C)C(=O)C[C@@H](C)N(C)C(=O)[C@H](C2CCCC2)N(C)C(=O)C2(CCCC2)NC(=O)[C@@H]2CCCN2C(=O)[C@H](CCc2ccc(C(F)(F)F)c(Cl)c2)NC(=O)CN(C)C(=O)[C@H](Cc2ccc(C)cc2)N(CC)C(=O)[C@@H]2CCN2C(=O)[C@H](C)N(C)C1=O` [Compound 494] (cyclo([Ac5c][NMeGly(cPent)][NMedβ3hAla][NMeL]I[NMeA][Aze][NEtPhe(4-Me)][Sar][hPhe(3-Cl-4-CF3)]P)): 8.6 nM; for `CC[C@H](C)[C@@H]1NC(=O)[C@H](CC(C)C)N(C)C(=O)C[C@@H](C)NC(=O)[C@H]([C@@H](C)CC)N(C)C(=O)C2(CCCC2)NC(=O)[C@@H]2CCCN2C(=O)[C@H](CCc2ccc(C(F)(F)F)c(Cl)c2)NC(=O)CN(C)C(=O)[C@H](CC2CCCCC2)N(C)C(=O)[C@@H]2CCN2C(=O)[C@H](C)N(C)C1=O` [Compound 1654] (cyclo([Ac5c][NMeI][d(β3hA)][NMeL]I[NMeA][Aze][NMeCha][Sar][hPhe(3-Cl-4-CF3)]P)): 22 nM. The same measure for `CC(C)C[C@H]1C(=O)N[C@@H](CC2CC2)C(=O)N(C)[C@@H](C)C(=O)N2CC[C@H]2C(=O)N(C)[C@@H](CC2CCCCC2)C(=O)N(C)CC(=O)N[C@@H](CCc2ccc(C(F)(F)F)c(Cl)c2)C(=O)N2CCC[C@H]2C(=O)NC2(CCCC2)C(=O)N(C)[C@@H](C(C)C)C(=O)N[C@H](C)CC(=O)N1C` [Compound 474] (cyclo([Ac5c][NMeV][d(β3hA)][NMeL][Ala(cPr)][NMeA][Aze][NMeCha][Sar][hPhe(3-Cl-4-CF3)]P)): 280 nM.
